The source of these data is US9283163B2, “Collagen stimulators and their use in the treatment of skin” (Avon Products, Inc., priority 2012, dated 2016).

The test relates to Normal Human dermal fibroblasts. The test can be described thus: Stimulation of collagen production: Procollagen Type-I C-Peptide EIA on conditioned media. It is filed as cell-based. As to conditions: 0.0005% compound, 48 hours, p<0.05. The protocol: Cell Treatment: Normal Human dermal fibroblasts were grown in DMEM (Mediatech; cat. #: 15-013-CV) containing 10% Fetal Bovine Serum (Perbio; cat. #: SH30070.03), Penicillin/Streptomycin (Mediatech, Cat #30-001-C1), L-Glutamine (Mediatech; cat. #: 25-005-CI) at 37° C. and 10% CO2. Cells were stripped of serum overnight, followed by treatment with the compound of Formula I(b) (0.0005%) or vehicle (DMSO), in the absence of serum for 48 hours.
Reading was measured at 450 nm using a spectrophotometer.
Human dermal fibroblasts treated with 0.0005% the compound of Formula I(b) for 48 hours were analyzed by ELISA for expression levels of pro-collagen. […] All values are statistically significant at p<0.05.

Take `COc1ccc(Cc2nc(=O)c(CCC(=O)N3CCC(C)CC3)n[nH]2)cc1OC` [Formula I(b)]: the “pro-collagen, relative to control, vehicle treated cells” value (ELISA, result in words) was “significant increase”. Under “serum-free, procollagen in conditioned media by ELISA, vehicle (DMSO) control = 100%”, this compound gave a Procollagen of 146%.
